Assay results as given in US20250115598A1 (Anaxis Pharma Pty Ltd, priority 2021, published 2025).
pKd: −log10 of the molar value.

Target: human RIPK3 (Homo sapiens (Human), UniProt Q9Y572)
Experiment: KINOMEscan binding assay, human RIPK3
Settings: Table 21
Experimental: (§1) Binding affinity of the test compounds for human MLKL (full length), mouse MLKL (full length), human RIPK1 and human RIPK3 was determined using the KINOMEscan™ technology developed by DiscoverX (USA; http://www.discoverx.com). The assay was conducted according to manufacturer instructions.
(§2) Kinase assays. For most assays, kinase-tagged T7 phage strains were grown in parallel in 24-well blocks in an E. coli host derived from the BL21 strain. E. coli were grown to log-phase and infected with T7 phage from a frozen stock (multiplicity of infection=0.4) and incubated with shaking at 32° C. until lysis (90-150 minutes). The lysates were centrifuged (6,000×g) and filtered (0.2 μm) to remove cell debris. The remaining kinases were produced in HEK-293 cells and subsequently tagged with DNA for qPCR detection. […] The liganded beads were blocked with excess biotin and washed with blocking buffer (SeaBlock (Pierce), 1% BSA, 0.05% Tween 20, 1 mM DTT) to remove unbound ligand and to reduce non-specific phage binding. […] All reactions were performed in polypropylene 384-well plates in a final volume of 20 μL. […] The kinase concentration in the eluates was measured by qPCR.
(§3) An 11-point 3-fold serial dilution of each test compound was prepared in 100% DMSO at 100× final test concentration and subsequently diluted to 1× in the assay (final DMSO concentration=1%). Most Kos were determined using a compound top concentration=30,000 nM.
(§4) KD for each test compound was calculated with a standard dose-response curve using the Hill equation (equation (1)): […]
(§5) The Hill Slope was set to −1.
(§6) Curves were fitted using a non-linear least square fit with the Levenberg-Marquardt algorithm.

human RIPK3, sequence (Q9Y572 whole entry): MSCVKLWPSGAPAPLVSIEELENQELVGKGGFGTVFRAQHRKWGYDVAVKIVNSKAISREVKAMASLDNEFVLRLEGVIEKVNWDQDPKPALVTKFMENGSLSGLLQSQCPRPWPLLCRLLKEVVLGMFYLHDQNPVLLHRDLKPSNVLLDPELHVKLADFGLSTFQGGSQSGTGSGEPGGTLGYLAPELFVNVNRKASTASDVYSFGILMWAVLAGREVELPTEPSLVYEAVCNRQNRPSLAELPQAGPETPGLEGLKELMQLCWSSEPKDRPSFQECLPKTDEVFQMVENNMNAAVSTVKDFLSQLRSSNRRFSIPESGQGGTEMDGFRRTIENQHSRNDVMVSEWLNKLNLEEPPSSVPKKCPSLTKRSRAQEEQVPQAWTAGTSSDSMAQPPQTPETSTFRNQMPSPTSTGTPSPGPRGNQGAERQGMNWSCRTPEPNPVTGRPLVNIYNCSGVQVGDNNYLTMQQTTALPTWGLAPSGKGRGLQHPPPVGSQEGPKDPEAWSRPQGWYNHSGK

pKd | SMILES
< 5.00 | CCS(=O)(=O)Nc1ccc(-c2nn(C)c3c(NC(C)=O)cnc(N)c23)cc1OCc1ccc(F)cc1 [Compound 2, N-(4-amino-3-(4-(ethylsulfonamido)-3-((4-fluorobenzyl)oxy)phenyl)-1-methyl-1H-pyrazolo[4,3-c]pyridin-7-yl)acetamide]
< 5.00 | CCS(=O)(=O)Nc1ccc(-c2coc3c(-c4cnn(CCO)c4)cnc(N)c23)cc1OCc1ccc(F)cc1 [Compound 4, N-(4-(4-amino-7-(1-(2-hydroxyethyl)-1H-pyrazol-4-yl)furo[3,2-c]pyridin-3-yl)-2-((4-fluorobenzyl)oxy)phe-nyl)ethanesulfonamide]
< 5.00 | Cn1nc(-c2ccc(NS(=O)(=O)C(F)F)c(OCc3ccc(F)cc3)c2)c2c(N)nccc21 [Compound 10, N-(4-{4-amino-1-methyl-1H-pyrazolo[4,3-c]pyridin-3-yl}-2-[(4-fluorophenyl)methoxy]phenyl)-1,1-difluoromethanesulfonamide]

Target: human MLKL (full length) (Homo sapiens (Human), UniProt Q8NB16)
Sequence (Q8NB16 whole entry): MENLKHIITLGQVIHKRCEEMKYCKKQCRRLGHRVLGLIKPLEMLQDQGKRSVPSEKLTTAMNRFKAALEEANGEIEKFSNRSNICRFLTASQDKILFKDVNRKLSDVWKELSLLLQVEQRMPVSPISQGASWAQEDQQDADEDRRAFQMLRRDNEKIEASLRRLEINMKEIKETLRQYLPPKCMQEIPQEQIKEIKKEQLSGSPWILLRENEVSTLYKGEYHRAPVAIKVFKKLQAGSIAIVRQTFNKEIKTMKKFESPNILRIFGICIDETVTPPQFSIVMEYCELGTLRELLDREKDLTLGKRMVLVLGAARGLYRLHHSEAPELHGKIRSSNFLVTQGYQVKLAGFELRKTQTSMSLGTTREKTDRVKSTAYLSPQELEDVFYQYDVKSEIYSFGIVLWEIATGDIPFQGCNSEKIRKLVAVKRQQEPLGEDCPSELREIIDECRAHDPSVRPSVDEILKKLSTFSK
Experiment: KINOMEscan binding assay, human MLKL (full length)
Settings: KINOMEscan, Table 21; read-out: Human MLKL (full-length) (KD)
Experimental: as §1, §2, §3, §4, §5, §6

pKd | SMILES
> 9.00 | Cn1nc(-c2ccc(NS(=O)(=O)C(F)F)c(OCc3ccc(F)cc3)c2)c2c(N)ncc(-c3ccncc3)c21 [Compound 14, N-(4-(4-amino-1-methyl-7-(pyridin-4-yl)-1H-pyrazolo[4,3-c]pyridin-3-yl)-2-((4-fluoro-benzyl)oxy)phenyl)-1,1-difluoromethane-sulfonamide]
> 9.00 | COc1ccc([C@H](C)Oc2cc(-c3nn(C)c4c(-c5cnn(C6CCOCC6)c5)cnc(N)c34)ccc2NS(=O)(=O)C(F)F)cc1 [Compound 129, (S)-N-(4-(4-amino-1-methyl-7-(1-(tetrahydro-2H-pyran-4-yl)-1H-pyrazol-4-yl)-1H-pyrazolo[4,3-c]pyridin-3-yl)-2-(1-(4-methoxy-phenyl)ethoxy)phenyl)-1,1-difluoromethane-sulfonamide]

Same assay, conditions: hMLKL, Table 25; read-out: MLKL (KD)

SMILES | pKd
Cc1ncsc1-c1ccc(CNC(=O)[C@@H]2C[C@@H](O)CN2C(=O)[C@@H](NC(=O)CCN2CCC(C#Cc3cnc(N)c4c(-c5ccc(NS(=O)(=O)C(F)F)c(O[C@@H](C)c6ccc(F)cc6)c5)nn(C)c34)CC2)C(C)(C)C)cc1 [Compound 1024, (2S,4R)-1-[(2S)-2-{3-[4-(2-{4-amino-3-[4-(difluoromethanesulfonamido)-3-[(1S)-1-(4-fluorophenyl)ethoxy]phenyl]-1-methyl-1H-pyrazolo[4,3-c]pyridin-7-yl}ethynyl)piperidin-1-yl]propanamido}-3,3-dimethylbutanoyl]-4-hydroxy-N-{[4-(4-methyl-1,3-thiazol-5-yl)phenyl]methyl}pyrrolidine-2-carboxamide] | > 8.00
Cc1ncsc1-c1ccc(CNC(=O)[C@@H]2C[C@@H](O)CN2C(=O)[C@@H](NC(=O)CCCCN2CCC(C#Cc3cnc(N)c4c(-c5ccc(NS(=O)(=O)C(F)F)c(O[C@@H](C)c6ccc(F)cc6)c5)nn(C)c34)CC2)C(C)(C)C)cc1 [Compound 1063, (2S,4R)-1-[(2S)-2-{5-[4-(2-{4-amino-3-[4-(difluoromethanesulfonamido)-3-[(1S)-1-(4-fluorophenyl)ethoxy]phenyl]-1-methyl-1H-pyrazolo[4,3-c]pyridin-7-yl}ethynyl)piperidin-1-yl]pentanamido}-3,3-dimethylbutanoyl]-4-hydroxy-N-{[4-(4-methyl-1,3-thiazol-5-yl)phenyl]methyl}pyrrolidine-2-carboxamide] | > 8.00
Cc1ncsc1-c1ccc(CNC(=O)[C@@H]2C[C@@H](O)CN2C(=O)[C@@H](NC(=O)CCCCOC(=O)c2ccc(-c3cnc(N)c4c(-c5ccc(NS(=O)(=O)C(F)F)c(O[C@@H](C)c6ccc(F)cc6)c5)nn(C)c34)cn2)C(C)(C)C)cc1 [Compound 1065, 4-{[(2S)-1-[(2S,4R)-4-hydroxy-2-({[4-(4-methyl-1,3-thiazol-5-yl)phenyl]methyl}carbamoyl)pyrrolidin-1-yl]-3,3-dimethyl-1-oxobutan-2-yl]carbamoyl}butyl 5-{4-amino-3-[4-(difluoromethanesulfonamido)-3-[(1S)-1-(4-fluorophenyl)ethoxy]phenyl]-1-methyl-1H-pyrazolo[4,3-c]pyridin-7-yl}pyridine-2-carboxylate] | > 8.00
CN[C@@H](C)C(=O)N[C@H](C(=O)N1C[C@H](NC(=O)CCCCn2cc(-c3cnc(N)c4c(-c5ccc(NS(=O)(=O)C(F)F)c(O[C@@H](C)c6ccc(F)cc6)c5)nn(C)c34)cn2)C[C@H]1C(=O)Nc1c(F)cccc1F)C(C)(C)C [Compound 1080, (2S)-4-[5-(4-{4-amino-3-[4-(difluoromethanesulfonamido)-3-[(1S)-1-(4-fluorophenyl)ethoxy]phenyl]-1-methyl-1H-pyrazolo[4,3-c]pyridin-7-yl}-1H-pyrazol-1-yl)pentanamido]-N-(2,6-difluorophenyl)-1-[(2S)-3,3-dimethyl-2-[(2S)-2-(methylamino)propanamido]butanoyl]pyrrolidine-2-carboxamide] | > 8.00
Cc1ncsc1-c1ccc(CNC(=O)[C@@H]2C[C@@H](O)CN2C(=O)[C@@H](NC(=O)C2(F)CC2)C(C)(C)C)c(OCCCCCCCCCn2cc(-c3cnc(N)c4c(-c5ccc(NS(=O)(=O)C(F)F)c(O[C@@H](C)c6ccc(F)cc6)c5)nn(C)c34)cn2)c1 [Compound 1138, (2S,4R)—N-[(2-{[9-(4-{4-amino-3-[4-(difluoromethanesulfonamido)-3-[(1S)-1-(4-fluorophenyl)ethoxy]phenyl]-1-methyl-1H-pyrazolo[4,3-c]pyridin-7-yl}-1H-pyrazol-1-yl)nonyl]oxy}-4-(4-methyl-1,3-thiazol-5-yl)phenyl)methyl]-1-[(2S)-2-[(1-fluorocyclopropyl) formamido]-3,3-dimethylbutanoyl]-4-hydroxypyrrolidine-2-carboxamide] | 6.00 to 8.00

More lines, now with the values ahead:

pKd | SMILES
6.00 to 8.00 | Cc1ncsc1-c1ccc(CNC(=O)[C@@H]2C[C@@H](O)CN2C(=O)[C@@H](NC(=O)c2ccc(OCCn3cc(-c4cnc(N)c5c(-c6ccc(NS(=O)(=O)C(F)F)c(O[C@@H](C)c7ccc(F)cc7)c6)nn(C)c45)cn3)cc2)C(C)(C)C)cc1 [Compound 1037, (2S,4R)-1-[(2S)-2-({4-[2-(4-{4-amino-3-[4-(difluoromethanesulfonamido)-3-[(1S)-1-(4-fluorophenyl)ethoxy]phenyl]-1-methyl-1H-pyrazolo[4,3-c]pyridin-7-yl}-1H-pyrazol-1-yl)ethoxy]phenyl}formamido)-3,3-dimethylbutanoyl]-4-hydroxy-N-{[4-(4-methyl-1,3-thiazol-5-yl)phenyl]methyl}pyrrolidine-2-carboxamide]
> 8.00 | CN[C@@H](C)C(=O)N[C@H](C(=O)N1C[C@H](NC(=O)COCCn2cc(-c3cnc(N)c4c(-c5ccc(NS(=O)(=O)C(F)F)c(O[C@@H](C)c6ccc(F)cc6)c5)nn(C)c34)cn2)C[C@H]1C(=O)Nc1c(F)cccc1F)C(C)(C)C [Compound 1089, (2S)-4-{2-[2-(4-{4-amino-3-[4-(difluoromethanesulfonamido)-3-[(1S)-1-(4-fluorophenyl)ethoxy]phenyl]-1-methyl-1H-pyrazolo[4,3-c]pyridin-7-yl}-1H-pyrazol-1-yl)ethoxy]acetamido}-N-(2,6-difluorophenyl)-1-[(2S)-3,3-dimethyl-2-[(2S)-2-(methylamino)propanamido]butanoyl]pyrrolidine-2-carboxamide]
> 8.00 | COc1ccc(C(=O)N2CCC(n3cc(-c4cnc(N)c5c(-c6ccc(NS(=O)(=O)C(F)F)c(O[C@@H](C)c7ccc(F)cc7)c6)nn(C)c45)cn3)CC2)cc1N1CCC(=O)NC1=O [Compound 1092, N-{4-[4-amino-7-(1-{1-[3-(2,4-dioxo-1,3-diazinan-1-yl)-4-methoxybenzoyl]piperidin-4-yl}-1H-pyrazol-4-yl)-1-methyl-1H-pyrazolo[4,3-c]pyridin-3-yl]-2-[(1S)-1-(4-fluorophenyl)ethoxy]phenyl}-1,1-difluoromethanesulfonamide]
> 8.00 | C[C@H](Oc1cc(-c2nn(C)c3c(-c4cnn(C5CCN(CCN6CCCC6COc6cccc7c6C(=O)N(C6CCC(=O)NC6=O)C7=O)CC5)c4)cnc(N)c23)ccc1NS(=O)(=O)C(F)F)c1ccc(F)cc1 (stereo partly drawn) [Compound 1120, N-(4-{4-amino-7-[1-(1-{2-[2-({[2-(2,6-dioxopiperidin-3-yl)-1,3-dioxo-2,3-dihydro-1H-isoindol-4-yl]oxy}methyl)pyrrolidin-1-yl]ethyl}piperidin-4-yl)-1H-pyrazol-4-yl]-1-methyl-1H-pyrazolo[4,3-c]pyridin-3-yl}-2-[(1S)-1-(4-fluorophenyl)ethoxy]phenyl)-1,1-difluoromethanesulfonamide]
> 8.00 | C[C@H](Oc1cc(-c2nn(C)c3c(-c4cnn(C5CCN(C(=O)CCC6CCN(c7cccc8c7C(=O)N(C7CCC(=O)N(C)C7=O)C8=O)CC6)CC5)c4)cnc(N)c23)ccc1NS(=O)(=O)C(F)F)c1ccc(F)cc1 (stereo partly drawn) [Compound 1141, N-[4-(4-amino-1-methyl-7-{1-[1-(3-{1-[2-(1-methyl-2,6-dioxopiperidin-3-yl)-1,3-dioxo-2,3-dihydro-1H-isoindol-4-yl]piperidin-4-yl}propanoyl)piperidin-4-yl]-1H-pyrazol-4-yl}-1H-pyrazolo[4,3-c]pyridin-3-yl)-2-[(1S)-1-(4-fluorophenyl)ethoxy]phenyl]-1,1-difluoromethanesulfonamide]

Target: human RIPK1 (Homo sapiens (Human), UniProt Q13546)
Sequence (Q13546 whole entry): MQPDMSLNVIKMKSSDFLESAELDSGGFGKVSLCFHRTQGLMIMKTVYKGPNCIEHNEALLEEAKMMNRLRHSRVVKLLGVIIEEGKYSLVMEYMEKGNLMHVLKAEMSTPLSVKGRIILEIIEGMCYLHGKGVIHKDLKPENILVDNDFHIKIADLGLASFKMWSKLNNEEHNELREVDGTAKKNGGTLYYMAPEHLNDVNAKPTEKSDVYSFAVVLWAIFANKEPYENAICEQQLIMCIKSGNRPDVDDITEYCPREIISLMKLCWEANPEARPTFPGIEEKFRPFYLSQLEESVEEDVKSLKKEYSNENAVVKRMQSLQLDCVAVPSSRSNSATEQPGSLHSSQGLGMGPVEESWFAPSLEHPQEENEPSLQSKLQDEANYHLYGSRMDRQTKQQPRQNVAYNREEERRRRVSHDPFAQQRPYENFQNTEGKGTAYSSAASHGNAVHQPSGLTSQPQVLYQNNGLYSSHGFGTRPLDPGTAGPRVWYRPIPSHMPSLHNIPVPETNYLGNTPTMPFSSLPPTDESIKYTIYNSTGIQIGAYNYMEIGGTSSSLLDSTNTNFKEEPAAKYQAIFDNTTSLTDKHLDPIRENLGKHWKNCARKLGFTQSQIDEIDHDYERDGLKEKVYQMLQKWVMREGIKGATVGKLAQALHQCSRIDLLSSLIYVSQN
Experiment: KINOMEscan binding assay, human RIPK1
Settings: Table 21
Experimental: as §1, §2, §3, §4, §5, §6

pKd | SMILES
< 5.00 | CCS(=O)(=O)Nc1ccc(-c2nn(C)c3c(NC(C)=O)cnc(N)c23)cc1OCc1ccc(F)cc1 [Compound 2, N-(4-amino-3-(4-(ethylsulfonamido)-3-((4-fluorobenzyl)oxy)phenyl)-1-methyl-1H-pyrazolo[4,3-c]pyridin-7-yl)acetamide]
< 5.00 | CCS(=O)(=O)Nc1ccc(-c2coc3c(-c4cnn(CCO)c4)cnc(N)c23)cc1OCc1ccc(F)cc1 [Compound 4, N-(4-(4-amino-7-(1-(2-hydroxyethyl)-1H-pyrazol-4-yl)furo[3,2-c]pyridin-3-yl)-2-((4-fluorobenzyl)oxy)phe-nyl)ethanesulfonamide]
< 5.00 | Cn1nc(-c2ccc(NS(=O)(=O)C(F)F)c(OCc3ccc(F)cc3)c2)c2c(N)nccc21 [Compound 10, N-(4-{4-amino-1-methyl-1H-pyrazolo[4,3-c]pyridin-3-yl}-2-[(4-fluorophenyl)methoxy]phenyl)-1,1-difluoromethanesulfonamide]
